By ED50 is commonly meant the dose at which the effect has come halfway, by size or by number of responders. Low readings indicate greater potency, high ones weaker potency. One may read the LD50 as the dose expected to kill half of the subjects tested. Low readings indicate greater toxicity, high ones lower toxicity.

In brackets after ≈: the same amount, converted by molar mass.

Series [1] in a line: Concentrations in serum after 120 minutes at 50 mg / kg oral administration. The series is classed as ADME, cell-free.
Another series has as its system Staphylococcus aureus. The series is described as follows: In vitro antibacterial activity against Staphylococcus aureus FDA 209P JC-1. It counts as functional.
A short description of series [2]: Concentrations in serum after 30 minutes at 50 mg / kg oral administration. It counts as ADME, cell-free.
The test system of another series is Proteus vulgaris. In words: In vitro antibacterial activity against Proteus vulgaris HX-19. The series is classed as functional.
The next series relates to Bacillus subtilis. The series is described as follows: In vitro antibacterial activity against Bacillus subtilis ATCC 6633. The series is classed as functional.
For series [3], the system named is Staphylococcus epidermidis. The series is described as follows: microbe, parasite or virus in culture. The series is classed as functional.
Description: In vitro antibacterial activity against Staphylococcus epidermidis IAM 1576
Series [4] in a line: Concentrations in serum after 240 minutes at 50 mg / kg oral administration. The series is classed as ADME.
Another series relates to Escherichia coli. In words: In vitro antibacterial activity against Escherichia coli NIHJ JC-2. The series is classed as functional.
The test system of the next series is Pseudomonas aeruginosa. In words: In vitro antibacterial activity against Pseudomonas aeruginosa IFO 3445. It counts as functional.
Another series deals with Klebsiella pneumoniae. The series is described as follows: microbe, parasite or virus in culture. The series is classed as functional.
The nature of series [5]: Total serum concentrations at 0 to 4 hours interval was determined by 50 mg / kg oral administration. It counts as ADME, cell-free.
Series [6] relates to Mus musculus. The series is described as follows: In vivo antibacterial activity against Escherichia coli (KC-14) was determined for the compound administered perorally; Value ranges from […]-[…]. The settings on record: po. It counts as functional.
In another series the test system is Salmonella paratyphi. The series is described as follows: microbe, parasite or virus in culture. As to conditions: Salmonella enterica. The series is classed as functional, Salmonella enterica subsp. enterica serovar Paratyphi A.
A short description of series [7]: Concentrations in serum after 60 minutes at 50 mg / kg oral administration. The series is classed as ADME, cell-free.
The subject of series [8] is Mus musculus. In words: In vivo antibacterial activity against Escherichia coli (KC-14) was determined for the compound administered perorally. The series is classed as functional. As to conditions: po.
The nature of series [9]: In vivo acute toxicity against Escherichia coli (KC-14) was determined for the compound administered perorally. The series is classed as organism-based. As to conditions: mouse, po.
Series [10] can be described thus: In vivo acute toxicity against Escherichia coli (KC-14) was determined for the compound administered intravenously. It counts as organism-based. As to conditions: mouse, iv.

Description for Klebsiella pneumoniae: In vitro antibacterial activity against Klebsiella pneumoniae PCI-602
Description for Salmonella paratyphi: In vitro antibacterial activity against Salmonella paratyphi 1015

As to `CCn1cc(C(=O)O)c(=O)c2cc(F)c(-n3cccc3)c(F)c21`, the concentration at 2 h in series [1] turned out to be 3230 ng/mL. Besides, the MIC against Staphylococcus aureus stood at 0.39 µg/mL (≈ 1.23 µM); with Proteus vulgaris, 0.1 µg/mL (≈ 0.314 µM); with Bacillus subtilis, 0.05 µg/mL (≈ 0.157 µM); in series [3], 1.56 µg/mL (≈ 4.9 µM); against Escherichia coli, 3.13 µg/mL (≈ 9.83 µM); against Pseudomonas aeruginosa, 12.5 µg/mL (≈ 39.3 µM). For the same molecule, the MIC with Klebsiella pneumoniae and with Salmonella paratyphi was 0.2 µg/mL (≈ 0.628 µM) throughout. In series [2], this molecule yielded a concentration at 0.5 h of 10700 ng/mL. In series [4], this molecule came in with a concentration at 4 h of 1650 ng/mL. The molecule further gave a Concentration in serum in [5] of 17200 ng/mL. The molecule also came in with an ED50 in the series on Mus musculus [6] of 11.7 mg/kg. The molecule also gave a concentration at 1 h in series [7] of 7070 ng/mL.

Regarding `CCn1cc(C(=O)O)c(=O)c2cc(F)c(-n3cnnc3)cc21`, the MIC (against Staphylococcus aureus; in the series on Proteus vulgaris; against Bacillus subtilis; in series [3]; in the series on Escherichia coli; against Pseudomonas aeruginosa) was 25 µg/mL (≈ 82.7 µM) in each case. Also, the MIC with Klebsiella pneumoniae is 12.5 µg/mL (≈ 41.4 µM); in the series with Salmonella paratyphi it was 3.13 µg/mL (≈ 10.4 µM).

For the molecule `CCn1cc(C(=O)O)c(=O)c2cc(F)c(-n3cnc(CN(C)C)c3)c(F)c21`, the MIC stood at 6.25 µg/mL (≈ 16.6 µM) with Staphylococcus aureus; 6.25 µg/mL (≈ 16.6 µM) against Proteus vulgaris; 6.25 µg/mL (≈ 16.6 µM) in the series on Bacillus subtilis; 25 µg/mL (≈ 66.4 µM) in series [3]; 25 µg/mL (≈ 66.4 µM) in the series with Escherichia coli; 25 µg/mL (≈ 66.4 µM) against Pseudomonas aeruginosa. In addition, the results for the MIC against Klebsiella pneumoniae and in the series with Salmonella paratyphi were 3.13 µg/mL (≈ 8.32 µM) and 6.25 µg/mL (≈ 16.6 µM), respectively.

`CCn1cc(C(=O)O)c(=O)c2cc(F)c(-n3ccnc3)cc21` yielded a concentration at 2 h in [1] of 1100 ng/mL. In addition, the MIC turned out to be 6.25 µg/mL (≈ 20.7 µM) with Staphylococcus aureus; 0.2 µg/mL (≈ 0.664 µM) with Proteus vulgaris; 0.78 µg/mL (≈ 2.59 µM) against Bacillus subtilis; 25 µg/mL (≈ 83 µM) in series [3]; 1.56 µg/mL (≈ 5.18 µM) against Escherichia coli; 12.5 µg/mL (≈ 41.5 µM) against Pseudomonas aeruginosa. Moreover, the MIC against Klebsiella pneumoniae was 0.2 µg/mL (≈ 0.664 µM); against Salmonella paratyphi, 0.1 µg/mL (≈ 0.332 µM). This molecule had a concentration at 0.5 h in series [2] of 4200 ng/mL. In series [5], the Concentration in serum was found to be 5500 ng/mL. The molecule further displayed an ED50 with Mus musculus [8] of 50 mg/kg. The concentration at 1 h in series [7] stood at 2300 ng/mL.

On to `CCn1cc(C(=O)O)c(=O)c2cc(F)c(-n3ccnc3)c(OC)c21`, for which the MIC in the series with Staphylococcus aureus is 0.39 µg/mL (≈ 1.18 µM); against Proteus vulgaris, 0.1 µg/mL (≈ 0.302 µM); in the series with Bacillus subtilis, 0.1 µg/mL (≈ 0.302 µM); in series [3], 1.56 µg/mL (≈ 4.71 µM); with Escherichia coli it was 1.56 µg/mL (≈ 4.71 µM); against Pseudomonas aeruginosa it was 25 µg/mL (≈ 75.5 µM). For the same molecule, the MIC against Klebsiella pneumoniae and against Salmonella paratyphi was 0.1 µg/mL (≈ 0.302 µM) throughout.

For `CCn1cc(C(=O)O)c(=O)c2cc(F)c(-n3cnc([N+](=O)[O-])c3)c(F)c21`, the MIC is 1.56 µg/mL (≈ 4.28 µM) in the series on Staphylococcus aureus; 3.13 µg/mL (≈ 8.59 µM) in the series with Proteus vulgaris; 0.39 µg/mL (≈ 1.07 µM) against Bacillus subtilis; 6.25 µg/mL (≈ 17.2 µM) in [3]; 6.25 µg/mL (≈ 17.2 µM) against Escherichia coli; 25 µg/mL (≈ 68.6 µM) in the series with Pseudomonas aeruginosa. Moreover, the MIC against Klebsiella pneumoniae worked out at 0.39 µg/mL (≈ 1.07 µM); in the series with Salmonella paratyphi, 1.56 µg/mL (≈ 4.28 µM).

`CCn1cc(C(=O)O)c(=O)c2cc(F)c(-n3cnc(CO)c3)c(F)c21`: the MIC with Staphylococcus aureus came to 25 µg/mL (≈ 71.6 µM); against Proteus vulgaris, 0.78 µg/mL (≈ 2.23 µM); with Bacillus subtilis it was 6.25 µg/mL (≈ 17.9 µM); in series [3], 25 µg/mL (≈ 71.6 µM); against Escherichia coli it was 6.25 µg/mL (≈ 17.9 µM); against Pseudomonas aeruginosa, 25 µg/mL (≈ 71.6 µM). For the same molecule, the MIC against Klebsiella pneumoniae was determined as 0.78 µg/mL (≈ 2.23 µM); with Salmonella paratyphi it was 0.39 µg/mL (≈ 1.12 µM).

Consider `CCn1cc(C(=O)O)c(=O)c2cc(F)c(N3CCNCC3)c(F)c21`, for which the LD50 in series [9] was found to be 1070 mg/kg; in [10], 193 mg/kg.

Regarding `CCn1cc(C(=O)O)c(=O)c2cc(F)c(-n3cnc4c3CCCC4)c(F)c21`, the MIC was 1.56 µg/mL (≈ 4.18 µM) against Staphylococcus aureus; 3.13 µg/mL (≈ 8.38 µM) against Proteus vulgaris; 0.39 µg/mL (≈ 1.04 µM) in the series with Bacillus subtilis; 6.25 µg/mL (≈ 16.7 µM) in series [3]; 12.5 µg/mL (≈ 33.5 µM) against Escherichia coli; 25 µg/mL (≈ 67 µM) with Pseudomonas aeruginosa. For the same molecule, the MIC was 1.56 µg/mL (≈ 4.18 µM) in the series on Klebsiella pneumoniae and 6.25 µg/mL (≈ 16.7 µM) with Salmonella paratyphi.

Take `CCn1cc(C(=O)O)c(=O)c2cc(F)c(-n3cnc4ccccc43)c(F)c21`: the MIC with Staphylococcus aureus amounted to 0.2 µg/mL (≈ 0.542 µM); against Proteus vulgaris, 0.78 µg/mL (≈ 2.11 µM); against Bacillus subtilis, 0.05 µg/mL (≈ 0.135 µM); in [3], 1.56 µg/mL (≈ 4.22 µM); in the series with Escherichia coli it was 1.56 µg/mL (≈ 4.22 µM); in the series on Pseudomonas aeruginosa, 12.5 µg/mL (≈ 33.8 µM). Also, the MIC against Klebsiella pneumoniae was 0.39 µg/mL (≈ 1.06 µM); against Salmonella paratyphi, 0.78 µg/mL (≈ 2.11 µM).

As to `CCn1cc(C(=O)O)c(=O)c2cc(F)c(-n3ccnc3C)c(F)c21`, the MIC stood at 6.25 µg/mL (≈ 18.8 µM) against Staphylococcus aureus; 0.2 µg/mL (≈ 0.6 µM) against Proteus vulgaris; 0.78 µg/mL (≈ 2.34 µM) against Bacillus subtilis; 25 µg/mL (≈ 75 µM) in [3]; 3.13 µg/mL (≈ 9.39 µM) in the series on Escherichia coli; 25 µg/mL (≈ 75 µM) in the series on Pseudomonas aeruginosa. For the same molecule, the MIC with Klebsiella pneumoniae and against Salmonella paratyphi was 0.39 µg/mL (≈ 1.17 µM) in each case.

For the origin of these results see ChEMBL document CHEMBL1123556, “Synthesis of antimicrobial agents. 1. Syntheses and antibacterial activities of 7-(azole substituted)quinolones” (J Med Chem, 1987).
